Data reported in patent publication US20040204466A1, “Treatment of bronchial asthma using 5-HT3 receptor antagonists” (Orchid Chemicals and Pharmaceuticals Ltd., priority 2003, published 2004).

Columns and labels:
Assay type in all cases: in vivo, female Balb/c mice
[1] = tested on: ovalbumin sensitized and challenged mice; experiment: Ova-specific airway resistance of early and late allergic response to antigen challenge; conditions: gavage 120 μg/kg twice a day for 10 days
Experimental: Four to five-week old female Balb/c mice (Harlan Laboratories, Indianapolis, Ind.) were housed according to the NIH guidelines and were allowed constant access to food and water. Intraperitoneal injections of 6 μg of grade V chicken egg ovalbumin (Ova; Sigma-Aldrich, St. Louis, Mo.) adsorbed to 2.25 mg Imject Alum (Pierce, Rockford, Ill.) and dissolved in PBS. Aerosol sensitization with 0.2% ovalbumin (Ova) for 10 minutes using Ultra-Neb 90 nebulizer (DeVilbiss, Somerset, Pa.). Ondansetron was administered by gavage in the dose of 120 μg/kg twice a day for 10 days.

[2] = tested on: ovalbumin sensitized and challenged mice; experiment: Serum IgE levels; conditions: gavage 120 μg/kg twice a day for 10 days; values increased, albeit insignificantly
[3] = tested on: ovalbumin sensitized and challenged mice; experiment: Airway hyperresponsiveness to methacholine (Penh, barometric plethysmography); conditions: 24 hours after antigen challenge, increasing doses of methacholine, FIGS. 5 and 6
Experimental: Four to five-week old female Balb/c mice (Harlan Laboratories, Indianapolis, Ind.) were housed according to the NIH guidelines and were allowed constant access to food and water. Intraperitoneal injections of 6 μg of grade V chicken egg ovalbumin (Ova; Sigma-Aldrich, St. Louis, Mo.) adsorbed to 2.25 mg Imject Alum (Pierce, Rockford, Ill.) and dissolved in PBS. Aerosol sensitization with 0.2% ovalbumin (Ova) for 10 minutes using Ultra-Neb 90 nebulizer (DeVilbiss, Somerset, Pa.). Twenty-four hours after antigen challenge, the mice were challenged with increasing does of methacholine and Penh values were recorded by barometric plethysmography.

[4] = tested on: ovalbumin sensitized and challenged mice; experiment: Eosinophils in BAL fluid following methacholine challenge; conditions: immediately following methacholine challenge; FIGS. 7 and 8

## Cc1nccn1CC1CCc2c(c3ccccc3n2C)C1=O (centres unmarked) [Ondansetron]
[1]; FIG. 1
  Ova-specific airway resistance of the early allergic response (EAR): without EAR protection
[1]; P <0.001, FIG. 2
  Ova-specific airway resistance of the late allergic response (LAR): significant protection during the LAR
[2]
  mean serum IgE concentrations: unaffected
[3]
  AHR to methacholine: completely suppressed
[4]
  numbers of eosinophil in BAL: significantly descried numbers of eosinophil
